Results from ChEMBL document CHEMBL1128255, “Synthesis of 11 beta-[18F]fluoro-5 alpha-dihydrotestosterone and 11 beta-[18F]fluoro-19-nor-5 alpha-dihydrotestosterone: preparation via halofluorination-reduction, receptor binding, and tissue distribution” (J Med Chem, 1995).

Legend:
[1] = %ID/g is percent injected dose per gram of tissue and in vivo distribution of compound obtained after 4 hour in prostate (v); assay type: ADME, organism-based, Prostate gland
[2] = %ID/g is percent injected dose per gram of tissue and in vivo distribution of compound obtained after 1 hour in prostate (d)/muscle; assay type: ADME, organism-based
[3] = %ID/g is percent injected dose per gram of tissue and in vivo distribution of compound obtained after 2 hour (low) in spleen; assay type: ADME, organism-based
[4] = %ID/g is percent injected dose per gram of tissue and in vivo distribution of compound obtained after 2 hour (low) in liver; assay type: ADME, organism-based
[5] = %ID/g is percent injected dose per gram of tissue and in vivo distribution of compound obtained after 4 hour in kidney; assay type: ADME, organism-based
[6] = %ID/g is percent injected dose per gram of tissue and in vivo distribution of compound obtained after 2 hour in prostate (d); assay type: ADME, organism-based, Prostate gland
[7] = %ID/g is percent injected dose per gram of tissue and in vivo distribution of compound obtained after 1 hour in fat; assay type: ADME, organism-based, Adipose tissue
[8] = %ID/g is percent injected dose per gram of tissue and in vivo distribution of compound obtained after 4 hour in prostate (v)/muscle; assay type: ADME, organism-based
[9] = %ID/g is percent injected dose per gram of tissue and in vivo distribution of compound obtained after 2 hour in liver; assay type: ADME, organism-based
[10] = %ID/g is percent injected dose per gram of tissue and in vivo distribution of compound obtained after 2 hour (blocked) in spleen; assay type: ADME, organism-based
[11] = %ID/g is percent injected dose per gram of tissue and in vivo distribution of compound obtained after 2 hour (blocked) in muscle; assay type: ADME, organism-based
[12] = %ID/g is percent injected dose per gram of tissue and in vivo distribution of compound obtained after 4 hour in prostate (d)/biood; assay type: ADME, organism-based, Prostate gland
[13] = %ID/g is percent injected dose per gram of tissue and in vivo distribution of compound obtained after 2 hour (low) in lung; assay type: ADME, organism-based
[14] = %ID/g is percent injected dose per gram of tissue and in vivo distribution of compound obtained after 2 hour in prostate (d)/biood; assay type: ADME, organism-based, Prostate gland
[15] = %ID/g is percent injected dose per gram of tissue and in vivo distribution of compound obtained after 2 hour in prostate (v)/muscle; assay type: ADME, organism-based
[16] = molecular target: T1, Androgen receptor (Rattus norvegicus) (UniProt P15207)
T1 sequence (whole entry): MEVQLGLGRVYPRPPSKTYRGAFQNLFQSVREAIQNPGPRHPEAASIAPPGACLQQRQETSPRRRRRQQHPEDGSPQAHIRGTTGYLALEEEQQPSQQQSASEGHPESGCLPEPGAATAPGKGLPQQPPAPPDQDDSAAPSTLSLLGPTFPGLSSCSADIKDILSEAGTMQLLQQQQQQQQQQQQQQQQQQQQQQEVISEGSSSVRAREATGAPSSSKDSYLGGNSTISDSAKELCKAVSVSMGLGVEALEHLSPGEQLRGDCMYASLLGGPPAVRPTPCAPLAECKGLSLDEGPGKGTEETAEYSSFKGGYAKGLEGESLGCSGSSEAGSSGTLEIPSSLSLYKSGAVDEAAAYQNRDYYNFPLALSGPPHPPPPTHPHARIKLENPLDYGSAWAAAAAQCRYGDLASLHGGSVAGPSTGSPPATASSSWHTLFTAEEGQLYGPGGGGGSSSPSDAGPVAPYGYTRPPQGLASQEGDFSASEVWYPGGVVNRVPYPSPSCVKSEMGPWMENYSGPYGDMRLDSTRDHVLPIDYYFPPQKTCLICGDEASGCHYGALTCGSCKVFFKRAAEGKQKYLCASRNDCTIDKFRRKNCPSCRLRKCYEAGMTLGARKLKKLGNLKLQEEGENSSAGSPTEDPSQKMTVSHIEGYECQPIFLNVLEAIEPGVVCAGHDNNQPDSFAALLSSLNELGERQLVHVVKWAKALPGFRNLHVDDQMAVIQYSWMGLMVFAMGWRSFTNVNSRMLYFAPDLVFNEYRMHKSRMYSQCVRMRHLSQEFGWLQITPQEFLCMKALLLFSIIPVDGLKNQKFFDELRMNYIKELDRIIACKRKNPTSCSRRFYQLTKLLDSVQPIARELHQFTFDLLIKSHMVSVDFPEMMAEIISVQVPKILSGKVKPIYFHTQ
Description: Binding selectivity index (BSI) as ratio of RBA for androgen receptor to non-specific binding of R1881

[17] = %ID/g is percent injected dose per gram of tissue and in vivo distribution of compound obtained after 2 hour (blocked) in bone; assay type: ADME, organism-based, Bone element
[18] = %ID/g is percent injected dose per gram of tissue and in vivo distribution of compound obtained after 2 hour in prostate (d)/muscle; assay type: ADME, organism-based
[19] = %ID/g is percent injected dose per gram of tissue and in vivo distribution of compound obtained after 2 hour (blocked) in prostate (d)/muscle; assay type: ADME, organism-based
[20] = %ID/g is percent injected dose per gram of tissue and in vivo distribution of compound obtained after 2 hour (low) in prostate (d); assay type: ADME, organism-based, Prostate gland
[21] = %ID/g is percent injected dose per gram of tissue and in vivo distribution of compound obtained after 2 hour in spleen; assay type: ADME, organism-based
[22] = %ID/g is percent injected dose per gram of tissue and in vivo distribution of compound obtained after 4 hour in liver; assay type: ADME, organism-based
physchem = conditions: octanol/water
Description: Partition coefficient (logP)

[23] = %ID/g is percent injected dose per gram of tissue and in vivo distribution of compound obtained after 1 hour in muscle; assay type: ADME, organism-based
[24] = %ID/g is percent injected dose per gram of tissue and in vivo distribution of compound obtained after 4 hour in blood; assay type: ADME, organism-based
[25] = %ID/g is percent injected dose per gram of tissue and in vivo distribution of compound obtained after 2 hr in kidney; assay type: ADME, organism-based
[26] = %ID/g is percent injected dose per gram of tissue and in vivo distribution of compound obtained after 2 hour in prostate (v)/blood; assay type: ADME, organism-based
[27] = %ID/g is percent injected dose per gram of tissue and in vivo distribution of compound obtained after 2 hour (blocked) in kidney; assay type: ADME, organism-based
[28] = %ID/g is percent injected dose per gram of tissue and in vivo distribution of compound obtained after 1 hour in lung; assay type: ADME, organism-based
[29] = %ID/g is percent injected dose per gram of tissue and in vivo distribution of compound obtained after 4 hour in muscle; assay type: ADME, organism-based
[30] = %ID/g is percent injected dose per gram of tissue and in vivo distribution of compound obtained after 1 hour in bone; assay type: ADME, organism-based, Bone element
[31] = %ID/g is percent injected dose per gram of tissue and in vivo distribution of compound obtained after 2 hour (blocked)i n prostate (d)/biood; assay type: ADME, organism-based, Prostate gland
[32] = %ID/g is percent injected dose per gram of tissue and in vivo distribution of compound obtained after 1 hour in bladder; assay type: ADME, organism-based, Urinary bladder
[33] = %ID/g is percent injected dose per gram of tissue and in vivo distribution of compound obtained after 4 hour in spleen; assay type: ADME, organism-based
[34] = %ID/g is percent injected dose per gram of tissue and in vivo distribution of compound obtained after 2 hour (low) in bone; assay type: ADME, organism-based, Bone element
[35] = %ID/g is percent injected dose per gram of tissue and in vivo distribution of compound obtained after 1 hour in prostate (v)/muscle; assay type: ADME, organism-based
[36] = %ID/g is percent injected dose per gram of tissue and in vivo distribution of compound obtained after 1 hour in blood; assay type: ADME, organism-based

| SMILES | ID/g [1] | ID/g [2] | ID/g [3] | ID/g [4] | ID/g [5] | ID/g [6] | ID/g [7] | ID/g [8] | ID/g [9] | ID/g [10] | ID/g [11] | ID/g [12] | ID/g [13] | ID/g [14] | ID/g [15] | BSI [16] | ID/g [17] | ID/g [18] | ID/g [19] | ID/g [20] | other results |
| --- | --- | --- | --- | --- | --- | --- | --- | --- | --- | --- | --- | --- | --- | --- | --- | --- | --- | --- | --- | --- | --- |
| C[C@]12CCC(=O)C[C@@H]1CC[C@@H]1[C@@H]2[C@@H](F)C[C@]2(C)[C@@H](O)CC[C@@H]12 | 0.327% | 7.75% | 0.017% | 0.228% | 0.155% | 0.352% | 0.061% | 19.715% | 0.451% | 0.026% | 0.023% | 10.827% | 0.036% | 10.642% | 9.022% | 42.8 | 0.061% | 10.141% | 3.089% | 0.229% | ID/g [21]: 0.03%; ID/g [22]: 0.415%; logP (physchem): 3.5; ID/g [23]: 0.059%; ID/g [24]: 0.028%; ID/g [25]: 0.229%; ID/g [26]: 10.058%; ID/g [27]: 0.2%; ID/g [28]: 0.111%; ID/g [29]: 0.017%; ID/g [30]: 0.064%; ID/g [31]: 1.465%; ID/g [32]: 1.245%; ID/g [33]: 0.02%; ID/g [34]: 0.059%; ID/g [35]: 8.208%; ID/g [36]: 0.092% |
| C[C@]12C[C@H](F)[C@H]3[C@@H](CC[C@H]4CC(=O)CC[C@@H]43)[C@@H]1CC[C@@H]2O | 0.066% | 3.473% | 0.049% | 1.045% | 0.201% | 0.132% | 0.069% | 2.919% | 0.992% | 0.032% | 0.03% | 2.682% | 0.061% | 2.95% | 3.404% | 91.8 | 0.065% | 3.882% | 1.61% | 0.139% | ID/g [21]: 0.036%; ID/g [22]: 0.863%; logP (physchem): 3.1; ID/g [23]: 0.064%; ID/g [24]: 0.035%; ID/g [25]: 0.276%; ID/g [26]: 2.605%; ID/g [27]: 0.301%; ID/g [28]: 0.115%; ID/g [29]: 0.027%; ID/g [30]: 0.068%; ID/g [31]: 0.815%; ID/g [32]: 3.331%; ID/g [33]: 0.029%; ID/g [34]: 0.096%; ID/g [35]: 4.4%; ID/g [36]: 0.089% |
